Data reported in patent publication US20240083886A1, “HETEROCYCLIC GLP-1 AGONISTS” (Gasherbrum Bio, Inc., priority 2020, published 2024).

Biological target: GLP-1 Receptor (Homo sapiens, UniProt P43220)
Assay: GLP-1R agonist cAMP stimulation assay
Type: cell-based
Details: not given
Protocol: Activation of GLP-1 receptor is known to stimulate cyclic AMP (cAMP) production in cells which indicates primary coupling to the Gαs subunit of the G protein heterotrimeric complex.
To optimize functional activity directed toward Gαs coupling, a HEK293/CRE-Luc cell line developed by HDB stably expressing the GLP-1 Receptor was used. 200× concentration of compound working solutions were prepared (Agilent Technologies Bravo) with ½ log serial dilution in 384-well Echo LDV plate (Labcyte, Cat #LP-0200). 50 nL/well 200× concentration of compound working solutions were moved to 384-well white low volume plate (Greiner, Cat #784075) using Labcyte ECHO550. 1×10^5 cells/mL HEK293/GLP1R/CRE-LUC(HD Biosciences) cell suspensions prepared with assay buffer[DPBS containing 0.5 mM IBMX(Sigma, Cat #15879) and 0.1% BSA (GENVIEW, Cat #FA016-100 g)], 10 uL cell suspensions were added to each well of previous generated assay plate which already contains 50 nl compound at 200×concentration using ThermoFisher Multidrop Combi (1000 cells/well). Seal the plate and incubate at 37° C. with 5% CO2 for 30 min.
After incubation the cAMP assay signal was generated using cAMP dynamic 2 Kit (Cisbio). 5 μL cAMP-d2 working solution was added to each well, followed with 5 μL Anti-cAMP antibody-cryptate working solution added to each well using ThermoFisher Multidrop Combi. Incubate at room temperature for 1 hour protected from light. Read the fluorescence at 665 and 615 nm with Reader PerkinElmer EnVision.
% Activity=100%×(mean RLU of test sample−mean RLU of vehicle control)/(mean RLU of MAX control−mean RLU of vehicle control))

Chain of GLP-1 Receptor (P43220 24-463, species assumed): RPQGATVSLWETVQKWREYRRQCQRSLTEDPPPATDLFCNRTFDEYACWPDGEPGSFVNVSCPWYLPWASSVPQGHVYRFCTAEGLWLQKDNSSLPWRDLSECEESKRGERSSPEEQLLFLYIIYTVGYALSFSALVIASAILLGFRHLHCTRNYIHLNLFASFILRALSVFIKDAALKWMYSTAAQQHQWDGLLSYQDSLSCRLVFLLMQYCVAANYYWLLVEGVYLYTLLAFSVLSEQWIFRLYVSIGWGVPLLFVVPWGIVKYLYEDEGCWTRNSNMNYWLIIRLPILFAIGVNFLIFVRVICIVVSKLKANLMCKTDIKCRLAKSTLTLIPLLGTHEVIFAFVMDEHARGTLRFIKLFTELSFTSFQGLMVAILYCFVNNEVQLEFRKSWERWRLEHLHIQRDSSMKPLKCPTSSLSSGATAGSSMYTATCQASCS

Row | SMILES | EC50 [pM]
1 | Cc1ccc(-c2ccc3c(c2)nc(CN2CCC(Oc4ccnc(Cc5ccc(Cl)cc5)n4)CC2)n3C[C@@H]2CCO2)nn1 [Compound 124a, 2-{[4-({2-[(4-chlorophenyl)methyl]pyrimidin-4-yl}oxy)piperidin-1-yl]methyl}-5-(6-methylpyridazin-3-yl)-1-{[(2S)-oxetan-2-yl]methyl}-1H-1,3-benzodiazole] | 590
2 | FC(F)(F)c1nnc(-c2ccc3c(c2)nc(CN2CCC(Oc4ccnc(Cc5ccc(Cl)cc5)n4)CC2)n3C[C@@H]2CCO2)[nH]1 [Compound 106a, 2-{[4-({2-[(4-chlorophenyl)methyl]pyrimidin-4-yl}oxy)piperidin-1-yl]methyl}-1-{[(2S)-oxetan-2-yl]methyl}-5-[5-(trifluoromethyl)-4H-1,2,4-triazol-3-yl]-1H-1,3-benzodiazole] | 98
3 | CCOCCn1c(CN2CCC(Oc3ccnc(Cc4ccc(Cl)cc4)n3)CC2)nc2cc(-c3nnc(C(F)(F)F)[nH]3)cnc21 [Compound 123, 2-[(4-chlorophenyl)methyl]-4-[(1-{[3-(2-ethoxyethyl)-6-[5-(trifluoromethyl)-4H-1,2,4-triazol-3-yl]-3H-imidazo[4,5-b]pyridin-2-yl]methyl}piperidin-4-yl)oxy]pyrimidine] | 5700
4 | Cc1nnc(-c2cnc3c(c2)nc(CN2CCC(Oc4nc(Cc5ccc(Cl)cc5)ncc4F)CC2)n3C[C@@H]2CCO2)[nH]1 [Compound 162a, 2-[(4-chlorophenyl)methyl]-5-fluoro-4-[(1-{[6-(5-methyl-4H-1,2,4-triazol-3-yl)-3-{[(2S)-oxetan-2-yl]methyl}-3H-imidazo[4,5-b]pyridin-2-yl]methyl}piperidin-4-yl)oxy]pyrimidine] | 2900
5 | FC(F)(F)c1nnc(-c2ccc3c(c2)nc(CN2CCC(Oc4cccc(Cc5ccc(Cl)cc5)n4)CC2)n3C[C@@H]2CCO2)[nH]1 [Compound 136a, 2-{[4-({6-[(4-chlorophenyl)methyl]pyridin-2-yl}oxy)piperidin-1-yl]methyl}-1-{[(2S)-oxetan-2-yl]methyl}-5-[5-(trifluoromethyl)-4H-1,2,4-triazol-3-yl]-1H-1,3-benzodiazole] | 220

Same assay, conditions: HEK293/GLP1R/CRE-LUC cells, cAMP dynamic 2 Kit (Cisbio), 30 min incubation at 37° C.; read-out: EC50

Row | SMILES | EC50 [pM]
6 | O=c1[nH]c(-c2cc3nc(CN4CCC(Oc5ccnc(Cc6ccc(Cl)cc6F)n5)CC4)n(C[C@@H]4CCO4)c3cn2)no1 [Compound 167a, 3-(2-{[4-({2-[(4-chloro-2-fluorophenyl)methyl]pyrimidin-4-yl}oxy)piperidin-1-yl]methyl}-3-{[(2S)-oxetan-2-yl]methyl}-3H-imidazo[4,5-c]pyridin-6-yl)-4,5-dihydro-1,2,4-oxadiazol-5-one] | 230
7 | N#CC1(Cn2c(CN3CCC(Oc4ccnc(Cc5ccc(Cl)cc5)n4)CC3)nc3cc(-c4noc(=O)[nH]4)ccc32)CC1 [Compound 155, 1-[(2-{[4-({2-[(4-chlorophenyl)methyl]pyrimidin-4-yl}oxy)piperidin-1-yl]methyl}-5-(5-oxo-4,5-dihydro-1,2,4-oxadiazol-3-yl)-1H-1,3-benzodiazol-1-yl)methyl]cyclopropane-1-carbonitrile] | 320
8 | Fc1cc(Cl)ccc1Cc1ncc(F)c(OC2CCN(Cc3nc4cc(-c5nnc(C(F)(F)F)[nH]5)nnc4n3C[C@@H]3CCO3)CC2)n1 [Compound 180a, 2-[(4-chloro-2-fluorophenyl)methyl]-5-fluoro-4-({1-[(7-{[(2S)-oxetan-2-yl]methyl}-3-[5-(trifluoromethyl)-4H-1,2,4-triazol-3-yl]-7H-imidazo[4,5-c]pyridazin-6-yl)methyl]piperidin-4-yl}oxy)pyrimidine] | 650
9 | Fc1cnc(Cc2ccc(Cl)cc2)nc1O[C@H]1CC[C@H](Cc2nc3cc(-c4nnc(C(F)(F)F)[nH]4)ccc3n2C[C@@H]2CCO2)CC1 [Compound 173a, 1-{[(2S)-oxetan-2-yl]methyl}-2-{[(1r,4r)-4-({2-[(4-chlorophenyl)methyl]-5-fluoropyrimidin-4-yl}oxy)cyclohexyl]methyl}-5-[5-(trifluoromethyl)-4H-1,2,4-triazol-3-yl]-1H-1,3-benzodiazole] | 810
10 | CCc1ccc(C(=O)Nc2ccc3c(c2)nc(CN2CCC(Oc4ccnc(Cc5ccc(Cl)cc5F)n4)CC2)n3C[C@@H]2CCO2)cn1 [Compound 114a, N-(2-{[4-({2-[(4-chloro-2-fluorophenyl)methyl]pyrimidin-4-yl}oxy)piperidin-1-yl]methyl}-1-{[(2S)-oxetan-2-yl]methyl}-1H-1,3-benzodiazol-5-yl)-6-ethylpyridine-3-carboxamide] | 1600
11 | Cc1ccc(C(=O)Nc2ccc3c(c2)nc(CN2CCC(Oc4ccnc(Cc5ccc(Cl)cc5)n4)CC2)n3C[C@@H]2CCO2)cn1 [Compound 104a, N-(2-{[4-({2-[(4-chlorophenyl)methyl]pyrimidin-4-yl}oxy)piperidin-1-yl]methyl}-1-{[(2S)-oxetan-2-yl]methyl}-1H-1,3-benzodiazol-5-yl)-6-methylpyridine-3-carboxamide] | 1100
12 | O=c1[nH]c(-c2cnc3c(c2)nc(CN2CCC(Oc4ccnc(Cc5ccc(Cl)cc5)n4)CC2)n3C[C@@H]2CCO2)no1 [Compound 144a, 3-(2-{[4-({2-[(4-chlorophenyl)methyl]pyrimidin-4-yl}oxy)piperidin-1-yl]methyl}-3-{[(2S)-oxetan-2-yl]methyl}-3H-imidazo[4,5-b]pyridin-6-yl)-4,5-dihydro-1,2,4-oxadiazol-5-one] | 1800
13 | CC(=O)Nc1ccc2c(c1)nc(CN1CCC(Oc3cccc(Cc4ccc(Cl)cc4F)n3)CC1)n2C[C@@H]1CCO1 [Compound 160a] | 12200
14 | O=C(Nc1ccc2c(c1)nc(CN1CCC(Oc3ccnc(Cc4ccc(Cl)cc4F)n3)CC1)n2C[C@@H]1CCO1)c1ccc(C2CC2)nc1 [Compound 117a, N-(2-{[4-({2-[(4-chloro-2-fluorophenyl)methyl]pyrimidin-4-yl}oxy)piperidin-1-yl]methyl}-1-{[(2S)-oxetan-2-yl]methyl}-1H-1,3-benzodiazol-5-yl)-6-cyclopropylpyridine-3-carboxamide] | 5900
15 | Fc1cc(Cl)ccc1Cc1ncc(F)c(OC2CCN(Cc3nc4cc(-c5nnn[nH]5)ncc4n3C[C@@H]3CCO3)CC2)n1 [Compound 175a, 2-[(4-chloro-2-fluorophenyl)methyl]-5-fluoro-4-({1-[(3-{[(2S)-oxetan-2-yl]methyl}-6-(1H-1,2,3,4-tetrazol-5-yl)-3H-imidazo[4,5-c]pyridin-2-yl)methyl]piperidin-4-yl}oxy)pyrimidine] | 170
16 | Fc1cc(Cl)ccc1Cc1nccc(OC2CCN(Cc3nc4cc(-c5nnc(C(F)(F)F)[nH]5)ncc4n3C[C@@H]3CCO3)CC2)n1 [Compound 138a, 2-[(4-chloro-2-fluorophenyl)methyl]-4-({1-[(3-{[(2S)-oxetan-2-yl]methyl}-6-[5-(trifluoromethyl)-4H-1,2,4-triazol-3-yl]-3H-imidazo[4,5-c]pyridin-2-yl)methyl]piperidin-4-yl}oxy)pyrimidine] | 30
17 | FC1(F)CCN(Cc2cccc(OC3CCN(Cc4nc5cc(-c6nnc(C(F)(F)F)[nH]6)ncc5n4C[C@@H]4CCO4)CC3)n2)CC1 [Compound 184a, 2-[(4,4-difluoropiperidin-1-yl)methyl]-6-({1-[(3-{[(2S)-oxetan-2-yl]methyl}-6-[5-(trifluoromethyl)-4H-1,2,4-triazol-3-yl]-3H-imidazo[4,5-c]pyridin-2-yl)methyl]piperidin-4-yl}oxy)pyridine] | 13000
18 | O=c1[nH]c(-c2cc3nc(CN4CCC(Oc5ccnc(Cc6ccc(Cl)cc6)n5)CC4)n(C[C@@H]4CCO4)c3cn2)no1 [Compound 145a, 3-(2-{[4-({2-[(4-chlorophenyl)methyl]pyrimidin-4-yl}oxy)piperidin-1-yl]methyl}-3-{[(2S)-oxetan-2-yl]methyl}-3H-imidazo[4,5-c]pyridin-6-yl)-4,5-dihydro-1,2,4-oxadiazol-5-one] | 82
19 | Fc1cc(Cl)ccc1Cc1ccc(F)c(OC2CCN(Cc3nc4cc(-c5nnc(C(F)(F)F)[nH]5)ncc4n3C[C@@H]3CCO3)CC2)n1 [Compound 164a, 6-[(4-chloro-2-fluorophenyl)methyl]-3-fluoro-2-({1-[(3-{[(2S)-oxetan-2-yl]methyl}-6-[5-(trifluoromethyl)-4H-1,2,4-triazol-3-yl]-3H-imidazo[4,5-c]pyridin-2-yl)methyl]piperidin-4-yl}oxy)pyridine] | 350
20 | N#CC1(Cn2c(CN3CCC(Oc4cccc(Cc5ccc(Cl)cc5F)n4)CC3)nc3cc(-c4nnc(C(F)(F)F)[nH]4)ncc32)CC1 [Compound 179, 1-[(2-{[4-({6-[(4-chloro-2-fluorophenyl)methyl]pyridin-2-yl}oxy)piperidin-1-yl]methyl}-6-[5-(trifluoromethyl)-4H-1,2,4-triazol-3-yl]-3H-imidazo[4,5-c]pyridin-3-yl)methyl]cyclopropane-1-carbonitrile] | 490
21 | O=c1[nH]c(-c2ccc3c(c2)nc(C[C@H]2CC[C@H](Oc4nc(Cc5ccc(Cl)cc5)ncc4F)CC2)n3C[C@@H]2CCO2)no1 [Compound 172a, 3-(1-{[(2S)-oxetan-2-yl]methyl}-2-{[(1r,4r)-4-({2-[(4-chlorophenyl)methyl]-5-fluoropyrimidin-4-yl}oxy)cyclohexyl]methyl}-1H-1,3-benzodiazol-5-yl)-4,5-dihydro-1,2,4-oxadiazol-5-one] | 1800
